Data: US20240058457A1, “BTK DEGRADER” (Newave Pharmaceutical Inc., priority 2020, published 2024)

Experiments:
BTK = target: T1, BTK (Homo sapiens, UniProt Q06187); assay: BTK HTRF degradation assay; type: cell-based; conditions: treatment time 24 h; Cisbio Total-BTK HTRF; Rec-1 / Ramos cells
T1 construct: endogenous in cells; host or cells: Rec-1 cells (ATCC) / Ramos cells
Procedure: Rec-1 cells were obtained from American Type Culture Collection and were grown in RPMI-1640 media (ATCC, 30-2001) supplemented with 10% heat-inactivated FBS (Corning Premium Fetal Bovine Serum from Fisher, MT35015CV). Compounds of the present invention were added to 50,000 Ramos cells in round-bottom 96 well plates with a final DMSO concentration of […] and were incubated at 37° C. 5% CO2 for different time. BTK levels were determined using Cisbio Total-BTK HTRF ([…] Time-Resolved Fluorescence) kit (63ADK064PEG) according to manufacturer's protocol. Briefly, cells were incubated in 1× supplied lysis buffer for 30 minutes. In an opaque white low volume 96 well plate (Cisbio, 66PL96005), cell lysate was combined with two different specific BTK antibodies, one conjugated with Eu3+-Cryptate FRET donor and one conjugated with d2 FRET acceptor. Assay controls include wells containing cell lysate with only the Eu3+-Cryptate FRET donor antibody and wells containing both HTRF antibodies and lysis buffer without cells or control lysate provided by Cisbio. HTRF ratio was calculated as (acceptor signal at 665 nm/donor signal at 620 nm)×[…]. Background HTRF levels were determined from the control well containing the donor, but no acceptor, antibody. Background HTRF levels were subtracted from all samples. Readouts were reported as HTRF levels relative to HTRF levels of DMSO-treated cells. Four-parameter non-linear regressions were performed in GraphPad Prism 7.02 to obtain DC50 values.

Mice PK study = type: in vivo; conditions: CD-1 mouse; for AUCinf(h*ng/mL)/(mg/kg): plasma, route not stated in table (text: oral PK profile)
Procedure: The pharmacokinetics of compounds were evaluated in CD-1 mouse via Intravenous and Oral Administration. The IV dose was administered as a slow bolus in the Jugular vein, and oral doses were administered by gavage. The formulation for IV dosing is 5% DMSO in 20% HPBCD in water, and the PO formulation is 2.5% DMSO, 10% EtOH, 20% Cremphor EL, 67.5% D5W. The PK time point for the IV arm was 5, 15, 30 min, 1, 2, 4, 6, 8, 12, 24 hours post dose, and for PO arm was 15, 30 min, 1, 2, 4, 6, 8, 12, 24 hours post dose. Approximately 0.03 mL blood was collected at each time point. Blood of each sample was transferred into plastic micro centrifuge tubes containing EDTA-K2 and plasma was collected within 15 min by centrifugation at 4000 g for 5 minutes in a 4° C. centrifuge. Plasma samples were stored in polypropylene tubes. The samples were stored in a freezer at −75±15° C. prior to analysis. Concentrations of compounds in the plasma samples were analyzed using a LC-MS/MS method. WinNonlin (Phoenix™, version 6.1) or other similar software was used for pharmacokinetic calculations. The following pharmacokinetic parameters were calculated, whenever possible from the plasma concentration versus time data: IV administration: C0, CL, Vd, T1/2, AUCinf, AUClast, MRT, Number of Points for Regression; PO administration: Cmax, Tmax, T1/2, AUCinf, AUClast, F %, Number of Points for Regression. The pharmacokinetic data was described using descriptive statistics such as mean, standard deviation. Additional pharmacokinetic or statistical analysis was performed at the discretion of the contributing scientist, and was documented in the data summary.

T1 sequence (Q06187 whole entry): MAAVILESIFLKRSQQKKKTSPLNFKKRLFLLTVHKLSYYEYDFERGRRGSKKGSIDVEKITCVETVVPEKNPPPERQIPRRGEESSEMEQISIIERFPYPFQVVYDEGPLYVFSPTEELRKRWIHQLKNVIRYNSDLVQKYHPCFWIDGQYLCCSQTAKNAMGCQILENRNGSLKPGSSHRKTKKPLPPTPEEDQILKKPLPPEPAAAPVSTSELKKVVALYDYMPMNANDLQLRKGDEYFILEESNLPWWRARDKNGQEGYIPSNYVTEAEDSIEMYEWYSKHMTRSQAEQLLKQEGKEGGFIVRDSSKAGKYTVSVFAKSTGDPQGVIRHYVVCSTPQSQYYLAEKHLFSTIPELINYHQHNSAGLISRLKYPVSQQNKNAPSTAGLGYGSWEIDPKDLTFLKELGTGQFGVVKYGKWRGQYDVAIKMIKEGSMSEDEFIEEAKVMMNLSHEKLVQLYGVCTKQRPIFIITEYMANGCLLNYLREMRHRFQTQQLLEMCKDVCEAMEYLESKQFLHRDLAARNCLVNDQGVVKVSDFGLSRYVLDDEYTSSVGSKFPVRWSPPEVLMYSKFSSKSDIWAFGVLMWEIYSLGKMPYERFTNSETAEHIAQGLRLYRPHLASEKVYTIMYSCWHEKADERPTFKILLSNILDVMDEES

DC50 (BTK) [nM] | Dmax (BTK) [%] | oral PK profile (comparison) (Mice PK study; oral) | AUCinf(h*ng/mL)/(mg/kg) (Mice PK study) | Dmax % (BTK) [%] | SMILES
1.1 | 98 | better oral PK profile than Example 2 | 3,822 (h*ng/mL)/(mg/kg) |  | [2H]C([2H])([2H])n1cc(-c2ccnc(N3CCn4c(cc5c4CC(C)(C)C5)C3=O)c2CO)cc(Nc2ccc(N3CCN(C4CCN(c5ccc6c(c5)C(=O)N(C5CCC(=O)NC5=O)C6=O)CC4)C[C@@H]3C)cn2)c1=O (stereo partly drawn) [Example 22, 5-(4-((S)-4-(6-((2′-(7,7-dimethyl-1-oxo-1,3,4,6,7,8-hexahydro-2H-cyclopenta[4,5]pyrrolo[1,2-a]pyrazin-2-yl)-3′-(hydroxymethyl)-1-(methyl-d3)-6-oxo-1,6-dihydro-[3,4′-bipyridin]-5-yl)amino)pyridin-3-yl)-3-methylpiperazin-1-yl)piperidin-1-yl)-2-(2,6-dioxopiperidin-3-yl)isoindoline-1,3-dione]
0.46 |  |  | 3,120 (h*ng/mL)/(mg/kg) | 96 | C[C@H]1CN(C2CCN(c3ccc4c(c3)C(=O)N(C3CCC(=O)NC3=O)C4=O)CC2)CCN1c1ccc(Nc2cc(-c3ccnc(N4CCn5c(cc6c5CC(C)(C)C6)C4=O)c3CO)cn(C)c2=O)nc1 (stereo partly drawn) [Example 2, 5-{4-[(3S)-4-{6-[(2′-{4,4-dimethyl-9-oxo-1,10-diazatricyclo[6.4.0.0^{2,6}]dodeca-2(6),7-dien-10-yl}-3′-(hydroxymethyl)-1-methyl-6-oxo-[3,4′-bipyridin]-5-yl)amino]pyridin-3-yl}-3-methylpiperazin-1-yl]piperidin-1-yl}-2-(2,6-dioxopiperidin-3-yl)isoindole-1,3-dione]
